Measured values reported in US10053458B2, “Pyrimidine-2,4-diamine derivative and anticancer pharmaceutical composition comprising same as effective ingredient” (KOREA RESEARCH INSTITUTE OF CHEMICAL TECHNOLOGY, priority 2014, dated 2018).
Where a name gives a salt, the structure may show the parent alone. Read-outs that look alike come from different tables or passages of the source.

Experiments:
[1] = test system: H2228; assay: Cancer cell proliferation inhibition (SRB/MTS), H2228; conditions: read-out: H2228 GI50
Experimental: (§1) Cancer cell lines used in the experiments were all human-derived cancer cell lines, specifically H2228 and H3122, which are non-small cell lung cancer cell lines.
(§2) The cancer cell proliferation inhibition was measured using the MTS assay as follows. […] Each culture medium was placed in an incubator for 4 hours, taken out and left at room temperature for 10 minutes.

[2] = test system: H3122; assay: Cancer cell proliferation inhibition (SRB/MTS), H3122; conditions: read-out: H3122 GI50
Experimental: as §1, §2

[3] = test system: BaF3 EML4-ALK WT cells; assay: Cytotoxicity on BaF3 cell transfected with EML4-ALK WT (WST-1); conditions: Ba/F3 EML4-ALK, 72 h, read-out: BaF3 EML4-ALK WT, IC50 of the cytotoxicity

SMILES	GI50 ([1]; hydrochloride)	GI50 ([2]; hydrochloride)	GI50 ([1]; Homo sapiens, NCI-H2228, 72 h)	GI50 ([2]; Homo sapiens, NCI-H3122, 72 h)	IC50 [3]	GI50 [1]	GI50 [2]
COc1cc2c(cc1Nc1ncc(Cl)c(Nc3ccccc3S(=O)(=O)C(C)C)n1)CCNC2(C)C [Example 101, 5-chloro-N4-(2-(isopropylsulfonyl)phenyl)-N2-(7-methoxy-1,1-dimethyl-1,2,3,4-tetrahydroisoquinolin-6-yl)pyrimidine-2,4-diamine hydrochloride]	< 50 nM	< 50 nM					
COc1cc2c(cc1Nc1ncc(Cl)c(Nc3ccccc3S(=O)(=O)C(C)C)n1)CN(C)CC2 [Example 35, 5-chloro-N4-(2-(isopropylsulfonyl)phenyl)-N2-(6-methoxy-2-methyl-1,2,3,4-tetrahydroisoquinolin-7-yl)pyrimidine-2,4-diamine]			< 50 nM	< 50 nM			
COc1cc2c(cc1Nc1ncc(Cl)c(Nc3ccccc3S(=O)(=O)C(C)C)n1)CC1(CC1)NC2C (stereo not drawn) [Example 30, 5-chloro-N4-(2-(isopropylsulfonyl)phenyl)-N2-(7-methoxy-1methyl-1,4-dihydro-2H-spiro[cyclopropane-1,3-isoquinoline]-6-yl)pyrimidine-2,4-diamine]			< 50 nM	< 50 nM	5 nM		
CC(C)COc1cc2c(cc1Nc1ncc(Cl)c(Nc3ccccc3S(=O)(=O)C(C)C)n1)CCN(C(=O)C(F)(F)F)C2 [Example 19, 1-(6-(5-chloro-4-(2-(isopropylsulfonyl)phenylamino)pyrimidin-2-yl)amino-7-isobutoxy-3,4-dihydroisoquinolin-2(1H)-yl)-2,2,2-trifluoroethane-1-one]			< 50 nM	< 50 nM	< 50 nM		
COc1cc2c(cc1Nc1ncc(Cl)c(Nc3ccccc3S(=O)(=O)C(C)C)n1)CCN(C(=O)CO)C2(C)C [Example 78, 1-6-(5-chloro-4-(2-(isopropylsulfonyl)phenylamino)pyrimidin-2-yl)amino-7-methoxy-1,1-dimethyl-3,4-dihydroisoquinolin-2(1H)-yl-2-hydroxyethane-1-one]			< 50 nM	< 50 nM	< 50 nM		
CCN1CCc2cc(Nc3ncc(Cl)c(Nc4ccccc4S(=O)(=O)C(C)C)n3)c(OC)cc2C1(C)C [Example 77, 5-chloro-N4-(2-(isopropylsulfonyl)phenyl)-N2-(2-ethyl-7-methoxy-1,1-dimethyl-1,2,3,4-tetrahydroisoquinolin-6-yl)pyrimidine-2,4-diamine]			< 50 nM	< 50 nM	< 50 nM		
COc1cc2c(cc1Nc1ncc(Cl)c(Nc3ccccc3S(=O)(=O)C(C)C)n1)C(C)(C)NCC2 [Example 72, 5-chloro-N4-(2-(isopropylsulfonyl)phenyl)-N2-(6-methoxy-1,1-dimethyl-1,2,3,4-tetrahydroisoquinolin-7-yl)pyrimidine-2,4-diamine]			< 50 nM	< 50 nM	< 50 nM		
CCCC1NCCc2cc(Nc3ncc(Cl)c(Nc4ccccc4S(=O)(=O)C(C)C)n3)c(OC)cc21 (stereo not drawn) [Example 102, 5-chloro-N4-(2-(isopropylsulfonyl)phenyl)-N2-(7-methoxy-1-propyl-1,2,3,4-tetrahydroisoquinolin-6-yl)pyrimidine-2,4-diamine]			< 50 nM	< 50 nM	< 50 nM		
COc1cc2c(cc1Nc1ncc(Cl)c(Nc3ccccc3S(=O)(=O)C(C)C)n1)CN(C(=O)CN(C)C)CC2(C)C [Example 94]			< 50 nM	< 50 nM	< 50 nM		
COc1cc2c(cc1Nc1ncc(Cl)c(Nc3ccccc3S(=O)(=O)C(C)C)n1)CNCC21CCCC1 [Example 83, 5-chloro-N4-(2-(isopropylsulfonyl)phenyl)-N2-(6-methoxy-2,3-dihydro-1H-spiro(cyclopentane-1,4-isoquinolin)-7-yl)pyrimidine-2,4-diamine]			< 50 nM	< 50 nM	< 50 nM		
COc1cc2c(cc1Nc1ncc(Cl)c(Nc3ccccc3S(=O)(=O)C(C)C)n1)CNC2(C)C [Example 106, 5-chloro-N4-(2-(isopropylsulfonyl)phenyl)-N2-(6-methoxy-1,1-dimethylisoindolin-5-yl)pyrimidine-2,4-diamine]			< 50 nM	< 50 nM	< 50 nM		
COc1cc2c(c(Cl)c1Nc1ncc(Cl)c(Nc3ccccc3S(=O)(=O)C(C)C)n1)CCNC2(C)C [Example 88, 5-chloro-N4-(2-(isopropylsulfonyl)phenyl)-N2-(5-chloro-7-methoxy-1,1-dimethyl-1,2,3,4-tetrahydroisoquinolin-6-yl)pyrimidine-2,4-diamine]			< 50 nM	< 50 nM	< 50 nM		
COc1cc2c(cc1Nc1ncc(Cl)c(Nc3ccccc3S(=O)(=O)C(C)C)n1)CCNC2(C)C [Example 33, 5-chloro-N4-(2-(isopropylsulfonyl)phenyl)-N2-(7-methoxy-1,1-dimethyl-1,2,3,4-tetrahydroisoquinolin-6-yl)pyrimidine-2,4-diamine]						18 nM	11 nM
CC(C)Oc1cc2c(cc1Nc1ncc(Cl)c(Nc3ccccc3S(=O)(=O)C(C)C)n1)CNCC2(C)C [Example 80, 5-chloro-N4-(2-(isopropylsulfonyl)phenyl)-N2-(6-isopropoxy-4,4-dimethyl-1,2,3,4-tetrahydroisoquinolin-7-yl)pyrimidine-2,4-diamine]			< 50 nM	< 50 nM	< 50 nM		
COc1cc2c(cc1Nc1ncc(Cl)c(Nc3ccccc3S(=O)(=O)C(C)C)n1)CNCC2(C)C [Example 75, 5-chloro-N4-(2-(isopropylsulfonyl)phenyl)-N2-(6-methoxy-4,4-dimethyl-1,2,3,4-tetrahydroisoquinolin-7-yl)pyrimidine-2,4-diamine]			< 50 nM	< 50 nM	< 50 nM		
COc1cc2c(cc1Nc1ncc(Cl)c(Nc3ccccc3S(=O)(=O)C(C)C)n1)C1CNCC(=O)N1CC2(C)C (stereo not drawn) [Example 85]			< 50 nM	< 50 nM	< 50 nM		
COc1c(Nc2ncc(Cl)c(Nc3ccccc3S(=O)(=O)C(C)C)n2)cc2c(c1Br)C(C)(C)NCC2 [Example 89, 5-chloro-N4-(2-(isopropylsulfonyl)phenyl)-N2-(8-bromo-7-methoxy-1,1-dimethyl-1,2,3,4-tetrahydroisoquinolin-6-yl)pyrimidine-2,4-diamine]			< 50 nM	< 50 nM	< 50 nM		
COc1cc2c(cc1Nc1ncc(Cl)c(Nc3ccccc3S(=O)(=O)C(C)C)n1)C1(CCCC1)CN(C(=O)C(F)(F)F)C2 [Example 13, 1-(6-(5-chloro-4-(2-(isopropylsulfonyl)phenylamino)pyrimidin-2-yl)amino-7-methoxy-1H-spiro[cyclopentane-1,4-isoquinoline]-2(3H)-yl)-2,2,2-trifluoroethane-1-one]			< 50 nM	< 50 nM	< 50 nM		
COc1c(Nc2ncc(Cl)c(Nc3ccccc3S(=O)(=O)C(C)C)n2)cc2c(c1Cl)C(C)(C)NCC2 [Example 90, 5-chloro-N4-(2-(isopropylsulfonyl)phenyl)-N2-(8-chloro-7-methoxy-1,1-dimethyl-1,2,3,4-tetrahydroisoquinolin-6-yl)pyrimidine-2,4-diamine]			< 50 nM	< 50 nM	< 50 nM		
COc1cc2c(cc1Nc1ncc(Cl)c(Nc3ccccc3S(=O)(=O)C(C)C)n1)CCNC2C(=O)O (stereo not drawn) [Example 76, 6-(5-chloro-4-(2-(isopropylsulfonyl)phenylamino)pyrimidin-2-yl)amino-7-methoxy-1,2,3,4-dihydroisoquinoline-1-carboxylic acid]			< 50 nM	< 50 nM	< 50 nM		
COc1cc2c(cc1Nc1ncc(Cl)c(Nc3ccccc3S(=O)(=O)C(C)C)n1)CCNC2C(F)(F)F (stereo not drawn) [Example 26]			< 50 nM	< 50 nM	< 50 nM		
COc1cc2c(cc1Nc1ncc(Cl)c(Nc3ccccc3S(=O)(=O)C(C)C)n1)C1CNCC(=O)N1CC2 (stereo not drawn) [Example 97]			< 50 nM	< 50 nM			
COc1cc2c(cc1Nc1ncc(Cl)c(Nc3ccccc3S(=O)(=O)C(C)C)n1)CCNC2C (stereo not drawn) [Example 25]			< 50 nM	8.9 nM			
COc1cc2c(cc1Nc1ncc(Cl)c(Nc3ccccc3S(=O)(=O)C(C)C)n1)C1(CCCC1)CNC2 [Example 14, 5-chloro-N4-(2-(isopropylsulfonyl)phenyl)-N2-(7-methoxy-2,3-dihydro-1H-spiro[cyclopentane-1,4-isoquinoline]-6-yl)pyrimidine-2,4-diamine]			< 50 nM	< 50 nM			
COc1cc2c(cc1Nc1ncc(Cl)c(Nc3ccccc3S(=O)(=O)C(C)C)n1)CCN1C(=O)CNCC21 (stereo not drawn) [Example 84]			< 50 nM	< 50 nM			
C[C@@H](Oc1cc(-c2cnn(C3CCNCC3)c2)cnc1N)c1c(Cl)ccc(F)c1Cl [Comparative Example 1, Crizotinib, reference compound]			85 nM	280 nM			
CCC1NCCc2cc(Nc3ncc(Cl)c(Nc4ccccc4S(=O)(=O)C(C)C)n3)c(OC)cc21 (stereo not drawn) [Example 27]			< 50 nM	8.4 nM			
